# Literature values as cited in US20190290478A1, “MEDICINAL HERBAL COMPOSITION FOR EYE APPLICATION” (priority 2018, published 2019).
# How the values were obtained:
# murine dry eye = settings: 10 mM betaine compared with placebo on the 14, 21, 35 days
# [1] = tested on: HCECs exposed to hyperosmotic stress
compound,measurement,setting,value
C[N+](C)(C)CC(=O)O [betaine],dry eye's symptom,murine dry eye,significantly reduced
same,inflammatory response via TRPV1 pathway,[1],suppress inflammatory response
